Literature values as cited in patent US20260176636A1, “APTAMER-DIRECT INHIBITOR CONJUGATES AND METHODS OF USING THE SAME” (Duke University, priority 2022, published 2026).
[invdT] = inverted (3'-3') thymidine

System: human thrombin
Conditions: approximately 1 μM; cited from earlier work

For “Tog25t: thrombin exosite II-targeting RNA aptamer, SEQ ID NO: 12 (GGGAACAAAGCUGAAGUACUUACCC; [invdT] at 3' end, other sugars and backbone not given here; further chemistry not fully specified)”, the “effect on aPTT clotting time” value is listed as “modest extension in aPTT clotting time”.
